Patent publication US20090214670A1, “Rhcc peptide and uses thereof” (Optovent AB, priority 2005, published 2009)

Assays:
RHCC peptide = test: NMR and UV-Vis absorption experiments on incorporation of metal ions in solution; assay type: binding, Staphylothermus marinus
From the text: For the addition of electrons according to reaction (4), electrochemical or photoelectrochemical reduction (with e.g. [Ru(bpy)3]^2+) may be used, although the simple addition of a chemical reducing agent (e.g. NaBH4) is also possible.

RHCC [1] = test: filtering experiment: excess metal complex removed via size exclusion filters, absorption spectra; assay type: binding, Staphylothermus marinus; conditions: mixed with excess metal complex, stirred at least 1 hour, solvent replaced via size exclusion filters; FIG. 2 and 3
Method: After leaving the mixed solution stirred for at least 1 hour, the solvent containing RHCC, the metal complex and the buffer or any other supporting salt, the solvent together with any excess metal complex and salt is replaced via size exclusion filters by a solvent NOT containing any metal complex. The result of such an experiment is plotted in FIG. 2. […] In combination with the x-ray structures a location of HgI4^2− inside the cavities in solution can be concluded. […] According to the crystal structure, incorporation into the cavities of RHCC can be concluded for cisplatin.

RHCC [2] = test: localisation by UV-Vis spectroscopy (solvatochromic effect); assay type: binding, Staphylothermus marinus; conditions: tris-buffer solution with RHCC compared with water, methanol, water/methanol 50/50; FIG. 1
Method: The location of a drug inside the cavities can be detected by techniques sensitive to the local microscopic environment of the molecule, e.g. the drug. For example the absorption of visible light (UV-Vis spectroscopy—solvatochromic effect) can be used to probe the local environment of e.g. […] (FIG. 1). The position of the absorption peak of […] is measured in water (FIG. 1—Plot A), in methanol (FIG. 1, Plot C), water/methanol (50/50) (FIG. 1—Plot B) and in a mixture with the peptide (FIG. 1—Plot E).

[3] = system: IL-6-dependent BAF/3 cell line; test: biological activity on the IL-6-dependent BAF/3 cell line; assay type: cell-based
From the text: The calculated molecular mass of RHCC-IL-6 monomer is 28.3 kDa. […] The corresponding value for the tetramer is […].

Molecule	incorporation of the metal ion into RHCC peptide in solution (RHCC peptide)	interaction of metal complex with RHCC after filtering off excess complex (RHCC [1])	local environment of the complex when mixed with the peptide (absorption peak position) (RHCC [2])	biological activity on IL-6-dependent BAF/3 cell line [3]
[Cl][Pt-2]([Cl])([Cl])[Cl] [[PtCl4]^−]	incorporates the metal ion in solution			
[I][Hg-2]([I])([I])[I] [HgI4^2−]	incorporates the metal ion in solution	strong enough to prevent HgI4^2− from being filtered from the solution	resides in a hydrophobic environment	
N.N.[Cl][Pt][Cl] [cisplatin]		strong interaction		
RHCC-IL-6 fusion molecule: fusion protein: histidine tag, human interleukin-6 sequence, GS linker, RHCC sequence; forms a tetramer				full biological activity
